Literature values as cited in patent publication US20260272857A1, “AN ORALLY RAPIDLY DISINTEGRATING TABLET OF PROPRANOLOL AND ITS PROCESS OF PREPARATION” (NOVUMGEN LIMITED, priority 2023, published 2026).
Counter-ions that a name gives are not always drawn.

Assays:
[1] = high permeability and high solubility drug
[2] = in vivo

Row | Structure (SMILES) | BCS class in the Biopharmaceutical classification system [1] | Elimination half-life [2] [h] | Plasma half-life [2] [h]
1 | CC(C)NCC(O)COc1cccc2ccccc12 (stereo not drawn) [Propranolol hydrochloride] | BCS class I |  | 
2 | CC(C)NCC(O)COc1cccc2ccccc12 (stereo not drawn) [propranolol, 1-naphthalen-1-yloxy-3-(propan-2-ylamino) propan-2-ol] |  | 8 | 3 to 6
